These results are taken from ChEMBL document CHEMBL1201862, “PubChem BioAssay data set” (2004).

Among the test systems are U-251; OVCAR-3; SR; M14; UACC-257; RXF 393; SK-MEL-5; Malme-3M; OVCAR-8; LOX IMVI; UACC-62; IGROV-1; SF-295; SK-MEL-2; K562; NCI-H226; CAKI-1.
What all share (assay): NCI anticancer screen, dose series, 48 h

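Assay format: 96-well plates, 48-hour exposure. Here, GI50 denotes the concentration required for 50% inhibition of growth.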 The source made the active and inactive calls. No stated cut-off is given here; in the data, active = GI50 up to about 1.1 µM and inactive = higher.

Consider `N#CC1C[C@@H]2CC3(CCC2CN1C(=O)c1ccccc1)OCCO3` (stereo partly drawn), for which the GI50 is > 100 µM (inactive) in the test on U-251; > 100 µM (inactive) with OVCAR-3; 0.607 µM (active) in the test with SR; > 100 µM (inactive) with M14; > 100 µM (inactive) in the test with UACC-257; > 100 µM (inactive) in the test on RXF 393. Besides, the GI50 in the test on SK-MEL-5, in the test with Malme-3M, in the test on OVCAR-8, in the test on LOX IMVI, in the test with UACC-62 and in the test with IGROV-1 was > 100 µM (inactive) each time. For the same compound, the figures for the GI50 in the test on SF-295, in the test with SK-MEL-2 and in the test on K562 were > 100 µM (inactive), 0.0925 µM (active) and > 100 µM (inactive), respectively.

With `CC(N)Cc1ccc(Cl)c(Cl)c1` (stereo not drawn), the GI50 in the test with U-251 is 42.7 µM (inactive); in the test on OVCAR-3, 69.3 µM (inactive); in the test on SR, 20.5 µM (inactive); in the test on M14 it was 18.4 µM (inactive); with UACC-257, 22.9 µM (inactive); with RXF 393, 24.9 µM (inactive). Further, the GI50 is 33.6 µM (inactive) with NCI-H226; 16.6 µM (inactive) with SK-MEL-5; 19.6 µM (inactive) with Malme-3M; > 66.2 µM (inactive) in the test on OVCAR-8; 27.2 µM (inactive) in the test on LOX IMVI; 22.8 µM (inactive) in the test on UACC-62. The GI50 with IGROV-1 was 51.6 µM (inactive); in the test with CAKI-1, 23.6 µM (inactive); with SF-295, > 52.2 µM (inactive); with SK-MEL-2 it was 19.4 µM (inactive); in the test with K562, 21.7 µM (inactive).

As to `CCOC(=O)[C@H]1CSC[C@@H](C(=O)OC)N1`, the GI50 with U-251, with OVCAR-3, with SR, in the test with M14, in the test on UACC-257 and in the test on RXF 393 was > 100 µM (inactive) in each case. In addition, the GI50 in the test with SK-MEL-5, in the test on Malme-3M, with OVCAR-8, with LOX IMVI, in the test with UACC-62 and in the test on IGROV-1 was > 100 µM (inactive) throughout. For the same compound, the GI50 with CAKI-1, in the test on SF-295, in the test on SK-MEL-2 and in the test with K562 was > 100 µM (inactive) throughout.

As to `COc1cc2cc3c4c(cc(OC)c(OC)c4c2cc1OC)CCN3C(=O)OCCN1CCNCC1`, the GI50 with U-251 was 15.3 µM (inactive); in the test on OVCAR-3, 15.3 µM (inactive); with SR, 11.2 µM (inactive); with M14 it was 14.7 µM (inactive); with UACC-257 it was 14.9 µM (inactive); with RXF 393, 14.4 µM (inactive). The GI50 was 14.4 µM (inactive) in the test with NCI-H226; 14.3 µM (inactive) with SK-MEL-5; 17.3 µM (inactive) in the test with Malme-3M; 15.9 µM (inactive) in the test on OVCAR-8; 13.7 µM (inactive) with LOX IMVI; 14.9 µM (inactive) with UACC-62. Besides, the GI50 with IGROV-1 is 17.3 µM (inactive); in the test with CAKI-1, 15 µM (inactive); with SF-295, 15 µM (inactive); in the test with SK-MEL-2, 19.3 µM (inactive); in the test with K562 it was 12.6 µM (inactive).

With `O=c1cc(-c2ccccc2)[nH]c2c(F)ccc(F)c12`, the GI50 in the test on U-251 is 41.4 µM (inactive); with SR, 13.3 µM (inactive); in the test on M14 it was 35.4 µM (inactive); in the test with UACC-257 it was > 100 µM (inactive); with RXF 393, 97.1 µM (inactive); in the test on NCI-H226, 37.6 µM (inactive). In addition, the GI50 was 44.1 µM (inactive) with SK-MEL-5; 31.7 µM (inactive) in the test on Malme-3M; 82 µM (inactive) with OVCAR-8; 49.3 µM (inactive) in the test with LOX IMVI; 30.7 µM (inactive) in the test with UACC-62; > 100 µM (inactive) in the test on IGROV-1. Also, the GI50 was 56.6 µM (inactive) with CAKI-1, 33 µM (inactive) in the test on SF-295, 16.4 µM (inactive) with SK-MEL-2 and 30.3 µM (inactive) in the test on K562.

On to `O=C1CC(S(=O)(=O)O)C=C1Nc1cccc(Cl)c1` (stereo not drawn), for which the GI50 with U-251, with OVCAR-3, in the test on SR, in the test on M14, in the test with UACC-257 and in the test on RXF 393 was > 100 µM (inactive) each time. Further, the GI50 in the test with NCI-H226, in the test on SK-MEL-5, with Malme-3M, in the test with OVCAR-8, in the test on LOX IMVI and in the test on UACC-62 was > 100 µM (inactive) throughout. Besides, the GI50 in the test on IGROV-1, in the test on CAKI-1, in the test on SF-295, in the test with SK-MEL-2 and in the test on K562 was > 100 µM (inactive) in each case.

Turning to `COc1ccc(C(=O)C(c2ccc(OC)cc2)C2(O)C(=O)Nc3ccc([N+](=O)[O-])cc32)cc1` (stereo not drawn), the GI50 was > 100 µM (inactive) with U-251; > 100 µM (inactive) in the test with OVCAR-3; 68.5 µM (inactive) in the test with SR; > 100 µM (inactive) in the test with M14; > 100 µM (inactive) with UACC-257; > 100 µM (inactive) with RXF 393. The GI50 with NCI-H226, in the test on Malme-3M, in the test on OVCAR-8, in the test with UACC-62, in the test with IGROV-1 and in the test with CAKI-1 was > 100 µM (inactive) throughout. The GI50 in the test on SF-295, in the test with SK-MEL-2 and in the test with K562 was > 100 µM (inactive) each time.

`COC(=O)c1c2c(c(-c3ccccc3)c3c1-c1nc(Cl)ccc1CC3)CCc1ccc(Cl)nc1-2`: the GI50 is 59.6 µM (inactive) in the test on U-251; > 100 µM (inactive) in the test on OVCAR-3; > 100 µM (inactive) in the test with SR; > 100 µM (inactive) with M14; > 100 µM (inactive) with UACC-257; 47.5 µM (inactive) in the test with RXF 393. Besides, the GI50 was 52.6 µM (inactive) in the test with NCI-H226; > 100 µM (inactive) with SK-MEL-5; > 100 µM (inactive) in the test with Malme-3M; 65.2 µM (inactive) in the test on OVCAR-8; > 100 µM (inactive) with LOX IMVI; 71.6 µM (inactive) in the test on UACC-62. The GI50 is > 100 µM (inactive) with IGROV-1, > 100 µM (inactive) in the test with CAKI-1, 44.6 µM (inactive) in the test with SF-295 and > 100 µM (inactive) in the test on K562.

Consider `COc1ccc(NC(=O)CC(=O)N2N=C(N(CCC#N)c3cccc(C)c3)CC2c2ccccc2)cc1` (stereo not drawn), for which the GI50 in the test on U-251, with OVCAR-3, with SR, with M14, in the test with UACC-257 and with RXF 393 was > 100 µM (inactive) in each case. Besides, the GI50 with NCI-H226, in the test with SK-MEL-5, in the test on Malme-3M, in the test with OVCAR-8, with UACC-62 and with IGROV-1 was > 100 µM (inactive) throughout. The GI50 with CAKI-1, with SF-295, in the test on SK-MEL-2 and in the test on K562 was > 100 µM (inactive) in each case.

Consider `O=C1NC(O)n2c(=O)[nH]c(=O)n21` (stereo not drawn), for which the GI50 with U-251, in the test with OVCAR-3, in the test with SR, with M14, in the test on UACC-257 and in the test with RXF 393 was > 100 µM (inactive) in each case. For the same compound, the GI50 in the test on NCI-H226, with SK-MEL-5, in the test on OVCAR-8, in the test on LOX IMVI, in the test with UACC-62 and in the test on IGROV-1 was > 100 µM (inactive) throughout. The GI50 in the test with CAKI-1, in the test with SF-295, with SK-MEL-2 and in the test on K562 was > 100 µM (inactive) throughout.

For the compound `COc1ccccc1C1c2cc3c(cc2OC(O)(CO)C1C(=O)O)OCO3.COc1ccccc1C1c2cc3c(cc2OC2(O)COC(=O)C12)OCO3` (stereo not drawn), the GI50 with U-251, in the test with OVCAR-3, with SR, in the test on M14, with UACC-257 and in the test on RXF 393 was > 100 µM (inactive) in each case. For the same compound, the GI50 with NCI-H226, in the test with SK-MEL-5, in the test on Malme-3M, in the test on OVCAR-8, in the test with LOX IMVI and in the test with UACC-62 was > 100 µM (inactive) each time. Further, the GI50 with IGROV-1, in the test with SF-295, in the test on SK-MEL-2 and in the test on K562 was > 100 µM (inactive) each time.

With `COc1cccc(C=O)c1[O-].COc1cccc(C=O)c1[O-].[Zn+2]`, the GI50 with U-251 was 38.4 µM (inactive); in the test on OVCAR-3, 32.8 µM (inactive); in the test with SR, 35.6 µM (inactive); in the test on M14 it was 36.3 µM (inactive); with UACC-257, 33.9 µM (inactive); in the test on RXF 393, > 100 µM (inactive). Besides, the GI50 was > 100 µM (inactive) with NCI-H226; 35.2 µM (inactive) with SK-MEL-5; 69 µM (inactive) with Malme-3M; 43.8 µM (inactive) in the test on OVCAR-8; 76.9 µM (inactive) with LOX IMVI; 46.2 µM (inactive) in the test on UACC-62. In addition, the GI50 is 75.2 µM (inactive) in the test on IGROV-1, 23.3 µM (inactive) in the test on SF-295, 48.9 µM (inactive) with SK-MEL-2 and 55.3 µM (inactive) in the test with K562.
